Data as given in patent US20260184697A1, “EZH1/2 INHIBITOR, PREPARATION THEREOF, AND USE THEREOF IN ANTI-TUMOR THERAPY” (JIANGSU TASLY DIYI PHARMACEUTICAL CO., LTD., priority 2022, published 2026).

Target: T1, EZH2/SUZ/EED (Homo sapiens, UniProt O75530+Q15022+Q15910)
T1 construct: purchased BPS 51003
Assay: Inhibitory effect on EZH2 by the MTase-Glo method (Test Example 1)
Assay type: biochemical
Settings: EZH2/SUZ/EED 6.25 nM, H3 peptide 10 μM, SAM 3 μM, 30° C. 3 h, read-out: Test Example 1 WT EZH2 IC50
Experimental: (§1) The compound was dissolved in DMSO, and the compound was serially diluted using ECHO665 and transferred to a 384-well reaction plate (Corning, 3824). A sample containing only DMSO was added as a positive control (maximum signal control) and a negative control (minimum signal control), while ensuring that the final DMSO content in each reaction well was 0.5%. The protein was configured in reaction buffer (50 mM Bicine, 0.01% Triton X-100, 1 mM DTT, 0.01% BSA, pH 7.6), such that the final reaction concentrations of EZH2/SUZ/EED (BPS, 51003) protein solution and EZH1/SUZ/EED (BPS, 51006) were 6.25 nM and 25 nM, respectively. The negative control (minimum signal control) used an equal amount of buffer instead of protein solution. The prepared protein solution was added to the 384-well reaction plate and pre-incubated at room temperature for 15 minutes. The mixture of the substrate H3 peptide fragment (custom-synthesized by GenScript, biotinylated Histone H3(21-44) peptide ([…]-GG-K(Biotin)-OH)) prepared in the reaction buffer and SAM (Promega, V7601) was added into the 384-well plate, such that the final reaction concentration of H3 peptide fragment was 10 μM, and the final concentration of SAM was 3 μM. The mixture was centrifuged at 1000 rpm for 1 min. The 384-well reaction plate was placed in a constant temperature shaker and incubate at 30° C. for 3 h at a speed of 300 rpm. Then the detection reagent was added according to the experimental process of the kit MTase-Glo (Promega, V7601) and incubated.
(§2) After incubation, read with BMG PHERAStar. The luminescence signals obtained by positive control (maximum signal control) and negative control (minimum signal control) were normalized to obtain the inhibition rate of different concentrations of compounds. Then, the IC50 of the compound on the enzyme activity inhibition was calculated by GraphPad Prism 6 with log(inhibitor) vs. response-Variable slope model fitting. The fitting equation is: Y=Bottom+(Top−Bottom)/(1+10^((Log IC50−X)*HillSlope)), wherein Y represents the known percentage remaining enzyme activity, and X represents the known activity after Log compound concentration.

T1 sequence (Q15910 2-746 limits assumed): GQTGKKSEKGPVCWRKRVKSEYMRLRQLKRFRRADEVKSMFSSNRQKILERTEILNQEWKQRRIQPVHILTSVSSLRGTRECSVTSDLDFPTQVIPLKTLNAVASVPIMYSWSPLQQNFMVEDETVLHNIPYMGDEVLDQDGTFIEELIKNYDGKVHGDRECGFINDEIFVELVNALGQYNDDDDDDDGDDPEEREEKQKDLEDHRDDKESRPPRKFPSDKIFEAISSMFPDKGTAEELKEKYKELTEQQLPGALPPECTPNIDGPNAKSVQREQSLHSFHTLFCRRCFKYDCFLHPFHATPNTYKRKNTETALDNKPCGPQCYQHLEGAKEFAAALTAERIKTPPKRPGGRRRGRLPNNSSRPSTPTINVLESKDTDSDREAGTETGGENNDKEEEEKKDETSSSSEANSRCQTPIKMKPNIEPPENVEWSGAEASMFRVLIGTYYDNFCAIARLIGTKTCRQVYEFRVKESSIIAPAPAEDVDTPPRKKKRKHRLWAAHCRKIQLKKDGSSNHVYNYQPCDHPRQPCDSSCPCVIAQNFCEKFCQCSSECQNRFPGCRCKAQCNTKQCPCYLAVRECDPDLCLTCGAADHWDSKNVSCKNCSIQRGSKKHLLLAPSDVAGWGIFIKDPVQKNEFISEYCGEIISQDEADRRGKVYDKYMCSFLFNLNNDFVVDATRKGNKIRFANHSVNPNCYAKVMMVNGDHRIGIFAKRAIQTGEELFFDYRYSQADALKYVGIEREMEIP
T1 sequence (Q15022 2-739 partner limits assumed): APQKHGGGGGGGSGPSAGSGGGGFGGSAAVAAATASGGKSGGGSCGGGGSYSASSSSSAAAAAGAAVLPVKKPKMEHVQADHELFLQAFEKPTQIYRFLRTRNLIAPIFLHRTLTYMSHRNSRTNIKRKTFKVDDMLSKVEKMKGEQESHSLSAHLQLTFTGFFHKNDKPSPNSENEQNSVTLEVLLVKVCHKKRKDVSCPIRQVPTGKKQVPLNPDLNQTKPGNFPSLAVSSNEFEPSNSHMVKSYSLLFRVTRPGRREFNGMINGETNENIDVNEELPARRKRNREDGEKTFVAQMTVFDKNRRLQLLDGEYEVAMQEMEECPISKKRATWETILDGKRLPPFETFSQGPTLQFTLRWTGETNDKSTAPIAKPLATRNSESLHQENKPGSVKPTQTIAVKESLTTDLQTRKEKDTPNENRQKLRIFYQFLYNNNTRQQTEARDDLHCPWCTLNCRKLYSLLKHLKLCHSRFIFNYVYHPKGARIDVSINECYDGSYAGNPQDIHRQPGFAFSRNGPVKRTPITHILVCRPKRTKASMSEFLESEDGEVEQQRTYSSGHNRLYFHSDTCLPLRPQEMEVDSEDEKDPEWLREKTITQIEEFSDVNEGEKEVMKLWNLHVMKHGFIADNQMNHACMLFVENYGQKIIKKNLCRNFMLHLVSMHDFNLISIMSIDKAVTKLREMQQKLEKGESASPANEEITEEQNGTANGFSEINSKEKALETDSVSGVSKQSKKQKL
T1 sequence (O75530 2-441 partner limits assumed): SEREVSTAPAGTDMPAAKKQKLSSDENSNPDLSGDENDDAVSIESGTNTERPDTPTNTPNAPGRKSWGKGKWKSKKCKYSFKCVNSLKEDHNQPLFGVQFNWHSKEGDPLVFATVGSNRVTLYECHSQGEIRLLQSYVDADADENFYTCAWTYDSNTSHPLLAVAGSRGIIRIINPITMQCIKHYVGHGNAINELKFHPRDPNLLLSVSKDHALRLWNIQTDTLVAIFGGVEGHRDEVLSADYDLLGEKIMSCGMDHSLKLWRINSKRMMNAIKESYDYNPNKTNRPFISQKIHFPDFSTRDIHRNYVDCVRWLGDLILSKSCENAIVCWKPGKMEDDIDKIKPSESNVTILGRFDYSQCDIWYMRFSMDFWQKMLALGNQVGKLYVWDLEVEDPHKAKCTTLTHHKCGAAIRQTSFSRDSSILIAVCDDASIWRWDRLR

| SMILES | IC50 |
| --- | --- |
| COc1c(Cl)c2c(c(C)c1C(=O)NCc1c(C)cc(C)[nH]c1=O)O[C@@H]([C@H]1CC[C@H](N(C)C)CC1)CO2 [Compound 135] | 0.0801 µM |
| COC1CN([C@H]2CC[C@@H]([C@H]3COc4c(Cl)cc(C(=O)NCc5c([S+](C)[O-])cc(C)[nH]c5=O)c(C)c4O3)CC2)C1 (some centres unmarked) [Compound 139] | 1.26 µM |
| COC1CN([C@H]2CC[C@H]([C@H]3COc4c(Cl)cc(C(=O)NCc5c([S+](C)[O-])cc(C)[nH]c5=O)c(C)c4O3)CC2)C1 (some centres unmarked) [Compound 140] | 0.897 µM |
| Cc1cc(C)c(CNC(=O)c2cc(Cl)c3c(c2Cl)O[C@H]([C@H]2CC[C@@H](N(C)C)CC2)CO3)c(=O)[nH]1 [Compound 142] | 1.16 µM |
| Cc1cc(C)c(CNC(=O)c2cc(Cl)c3c(c2Cl)OC[C@@H]([C@H]2CC[C@H](N(C)C)CC2)O3)c(=O)[nH]1 [Compound 148] | 0.0671 µM |

Now from value to compound:

| IC50 | SMILES |
| --- | --- |
| 0.0425 µM | COC1C[N+]([O-])([C@H]2CC[C@@H]([C@H]3COc4c(Cl)cc(C(=O)NCc5c([S+](C)[O-])cc(C)n(O)c5=O)c(C)c4O3)CC2)C1 (some centres unmarked) [Compound 136] |
| 0.0156 µM | Cc1cc(C)c(CNC(=O)c2cc(Cl)c3c(c2Cl)O[C@@H]([C@H]2CC[C@H](N(C)C)CC2)CO3)c(=O)[nH]1 [Compound 144] |
| 0.0116 µM | COC1CN([C@H]2CC[C@H]([C@H]3COc4c(Cl)cc(C(=O)NCc5c(SC)cc(C)[nH]c5=O)c(Cl)c4O3)CC2)C1 [Compound 150] |
| 0.0042 µM | COC1CN([C@H]2CC[C@H]([C@H]3COc4c(C#N)cc(C(=O)NCc5c(SC)cc(C)[nH]c5=O)c(C)c4O3)CC2)C1 [Compound 154] |
| 0.0015 µM | [2H]C([2H])([2H])Sc1cc(C)[nH]c(=O)c1CNC(=O)c1cc(Cl)c2c(c1C)O[C@@H](C1CCC(N3CC(OC)C3)CC1)CO2 (some centres unmarked) [Compound 177] |

Target: T2, EZH1/SUZ/EED (Homo sapiens, UniProt O75530+Q15022+Q92800)
T2 construct: purchased BPS 51006
T2 sequence (Q92800 2-747 limits assumed): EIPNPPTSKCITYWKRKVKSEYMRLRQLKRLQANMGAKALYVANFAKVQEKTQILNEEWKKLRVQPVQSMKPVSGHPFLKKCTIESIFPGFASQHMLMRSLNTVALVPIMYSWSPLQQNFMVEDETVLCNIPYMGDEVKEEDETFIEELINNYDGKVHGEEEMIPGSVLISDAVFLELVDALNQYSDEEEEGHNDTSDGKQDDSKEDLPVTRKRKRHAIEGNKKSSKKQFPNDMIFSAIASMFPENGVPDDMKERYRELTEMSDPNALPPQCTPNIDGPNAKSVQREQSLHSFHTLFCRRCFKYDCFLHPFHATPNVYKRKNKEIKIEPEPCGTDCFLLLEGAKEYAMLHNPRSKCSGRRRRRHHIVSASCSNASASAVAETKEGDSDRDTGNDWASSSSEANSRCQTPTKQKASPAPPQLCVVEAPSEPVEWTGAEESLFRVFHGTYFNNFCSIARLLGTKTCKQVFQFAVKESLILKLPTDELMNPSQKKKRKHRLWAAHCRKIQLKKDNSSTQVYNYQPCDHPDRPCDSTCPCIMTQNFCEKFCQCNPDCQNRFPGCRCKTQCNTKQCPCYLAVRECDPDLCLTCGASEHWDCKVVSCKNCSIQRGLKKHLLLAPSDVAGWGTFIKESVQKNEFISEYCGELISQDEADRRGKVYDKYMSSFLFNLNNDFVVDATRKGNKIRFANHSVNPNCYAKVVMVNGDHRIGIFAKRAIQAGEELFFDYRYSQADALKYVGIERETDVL
T2 sequence (Q15022 2-739 partner limits assumed): as the sequence (Q15022 2-739 partner limits assumed) above
T2 sequence (O75530 2-441 partner limits assumed): as the sequence (O75530 2-441 partner limits assumed) above
Assay: Inhibitory effect on EZH1 by the MTase-Glo method (Test Example 1)
Assay type: biochemical
Settings: EZH1/SUZ/EED 25 nM, H3 peptide 10 μM, SAM 3 μM, 30° C. 3 h, read-out: Test Example 1 WT EZH1 IC50
Experimental: as §1, §2

| SMILES | IC50 |
| --- | --- |
| COc1c(Cl)c2c(c(C)c1C(=O)NCc1c(C)cc(C)[nH]c1=O)O[C@@H]([C@H]1CC[C@H](N(C)C)CC1)CO2 [Compound 135] | 5.6 µM |
| COC1CN([C@H]2CC[C@@H]([C@H]3COc4c(Cl)cc(C(=O)NCc5c([S+](C)[O-])cc(C)[nH]c5=O)c(C)c4O3)CC2)C1 (some centres unmarked) [Compound 139] | 8.49 µM |
| COC1CN([C@H]2CC[C@H]([C@H]3COc4c(Cl)cc(C(=O)NCc5c([S+](C)[O-])cc(C)[nH]c5=O)c(C)c4O3)CC2)C1 (some centres unmarked) [Compound 140] | 8.91 µM |
| Cc1cc(C)c(CNC(=O)c2cc(Cl)c3c(c2Cl)O[C@H]([C@H]2CC[C@@H](N(C)C)CC2)CO3)c(=O)[nH]1 [Compound 142] | 7.61 µM |
| Cc1cc(C)c(CNC(=O)c2cc(Cl)c3c(c2Cl)OC[C@@H]([C@H]2CC[C@H](N(C)C)CC2)O3)c(=O)[nH]1 [Compound 148] | 2.83 µM |

Further lines, results first:

| IC50 | SMILES |
| --- | --- |
| 0.0086 µM | CO[C@@H]1CCN([C@H]2CC[C@H]([C@H]3COc4c(Cl)cc(C(=O)NCc5c(SC)cc(C)[nH]c5=O)c(C)c4O3)CC2)C1 [Compound 42] |
| 0.0077 µM | CSc1cc(C)[nH]c(=O)c1CNC(=O)c1cc(Cl)c2c(c1C)O[C@@H]([C@H]1CC[C@H](N3CC4(CCO4)C3)CC1)CO2 [Compound 46] |
| 0.006 µM | CSc1cc(C)[nH]c(=O)c1CNC(=O)c1cc(Cl)c2c(c1C)O[C@@H]([C@H]1CC[C@H](N3CC4(CCOC4)C3)CC1)CO2 [Compound 48] |
| 0.0022 µM | COC1CC2CN([C@H]3CC[C@@H]([C@H]4COc5c(Cl)cc(C(=O)NCc6c(SC)cc(C)[nH]c6=O)c(C)c5O4)CC3)CC2C1 (some centres unmarked) [Compound 49] |
| 0.0118 µM | COC1CC2CN([C@H]3CC[C@H]([C@H]4COc5c(Cl)cc(C(=O)NCc6c(SC)cc(C)[nH]c6=O)c(C)c5O4)CC3)CC2C1 (some centres unmarked) [Compound 50] |
| 0.192 µM | COC1C[N+]([O-])([C@H]2CC[C@@H]([C@H]3COc4c(Cl)cc(C(=O)NCc5c([S+](C)[O-])cc(C)n(O)c5=O)c(C)c4O3)CC2)C1 (some centres unmarked) [Compound 136] |
| 0.769 µM | Cc1cc(C)c(CNC(=O)c2cc(Cl)c3c(c2Cl)O[C@@H]([C@H]2CC[C@H](N(C)C)CC2)CO3)c(=O)[nH]1 [Compound 144] |
| 0.0222 µM | COC1CN([C@H]2CC[C@H]([C@H]3COc4c(Cl)cc(C(=O)NCc5c(SC)cc(C)[nH]c5=O)c(Cl)c4O3)CC2)C1 [Compound 150] |
| 0.03 µM | COC1CN([C@H]2CC[C@H]([C@H]3COc4c(C#N)cc(C(=O)NCc5c(SC)cc(C)[nH]c5=O)c(C)c4O3)CC2)C1 [Compound 154] |
| 0.0023 µM | [2H]C([2H])([2H])Sc1cc(C)[nH]c(=O)c1CNC(=O)c1cc(Cl)c2c(c1C)O[C@@H](C1CCC(N3CC(OC)C3)CC1)CO2 (some centres unmarked) [Compound 177] |

Test system: H3K27Me3 methylation in Karpas-422 cells
Assay: H3K27Me3 cell method, inhibition of H3K27Me3 methylation (Test Example 2)
Assay type: cell-based, human
Settings: Homo sapiens, KARPAS-422, 72 h, Karpas-422 cells, 3 days incubation, HTRF signal; read-out: Test Example 2 H3K27Me3 inhibition (Karpas-422) IC50
Experimental: Karpas-422 (Nanjing Kebai, CBP60629) cells were seeded in a 96-well plate (Corning, 3894) at 15,000 cells per well in culture medium (80% 1640 (Hyclone, SH30809.01)+20% FBS (Corning, 35-081-CV)), and then added with different concentrations of compounds for treatment. The cell growth group without adding compounds is used as a positive control (maximum signal control), and the medium is used as a negative control (minimum signal control), while ensuring that in each reaction well, the final concentration of DMSO was 0.2%. Compounds and cells were incubated for 3 days in a cell culture incubator (37° C., 5% CO2). The 96-well plate was taken out from the cell culture incubator and equilibrated to room temperature, and 25 ul of cell suspension was taken out into a 384-well plate. The CCK8 (Beiyuntian, C0040) detection reagent was added, incubated at 37° C. for 1 h, and […] was detected. The rest of the cells followed the procedure of the kit EPIgeneous H3K27Me3 cellular kit (Cisbio, 62KC3PAE) to carry out experiment, read HTRF signal with BMG PHERAStar. […] By GraphPad Prism 6 with log(inhibitor)vs.response-Variable slope model simulation, the IC50 of the compound on cell activity inhibition was calculated. The fitting equation is: Y=Bottom+(Top−Bottom)/(1+10^((Log IC50−X)*HillSlope)), wherein Y represents the inhibition rate, and X represents the known concentration of the compound after Log.

| SMILES | IC50 |
| --- | --- |
| CO[C@H]1CCN([C@H]2CC[C@H]([C@H]3COc4c(Cl)cc(C(=O)NCc5c(SC)cc(C)[nH]c5=O)c(C)c4O3)CC2)C1 [Compound 40] | 0.0083 µM |
| COc1cc(C)[nH]c(=O)c1CNC(=O)c1cc(Cl)c2c(c1Cl)O[C@@H]([C@H]1CC[C@@H](N3CC(OC)C3)CC1)CO2 [Compound 151] | 0.0132 µM |

The remaining lines, values ahead:

| IC50 | SMILES |
| --- | --- |
| 0.0471 µM | CO[C@@H]1CCN([C@H]2CC[C@H]([C@H]3COc4c(Cl)cc(C(=O)NCc5c(SC)cc(C)[nH]c5=O)c(C)c4O3)CC2)C1 [Compound 42] |
| 0.0658 µM | CSc1cc(C)[nH]c(=O)c1CNC(=O)c1cc(Cl)c2c(c1C)O[C@@H]([C@H]1CC[C@H](N3CC4(CCO4)C3)CC1)CO2 [Compound 46] |
| 0.0279 µM | CSc1cc(C)[nH]c(=O)c1CNC(=O)c1cc(Cl)c2c(c1C)O[C@@H]([C@H]1CC[C@H](N3CC4(CCOC4)C3)CC1)CO2 [Compound 48] |
| 0.0028 µM | COC1CC2CN([C@H]3CC[C@@H]([C@H]4COc5c(Cl)cc(C(=O)NCc6c(SC)cc(C)[nH]c6=O)c(C)c5O4)CC3)CC2C1 (some centres unmarked) [Compound 49] |
| 0.0238 µM | COC1CC2CN([C@H]3CC[C@H]([C@H]4COc5c(Cl)cc(C(=O)NCc6c(SC)cc(C)[nH]c6=O)c(C)c5O4)CC3)CC2C1 (some centres unmarked) [Compound 50] |
